The text below walks through data of patent US8785424B2, “ngCycloartanone derivatives with anticancer activity” (Pierre Fabre Medicament, priority 2009, dated 2014).

Where a name gives a salt, the structure may show the parent alone.

This assay deals with proteasome. In words: Cellular proteasome inhibition test: accumulation of 4Ub-Luc reporter (luciferase activity) in DLD-1 4Ub-Luc cell line. The note with it: DLD-1 4Ub-Luc cells, 8 hours, epoxomicin = 100%. The assay is classed as cell-based, human. In short, it runs like this: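 DLD-1 4Ub-Luc human colon cancer cells, which express a 4-ubiquitin–luciferase fusion that the proteasome degrades, were seeded into white 96-well plates (100 μl of 1·10^5 c/ml) and left to adhere for 24 hours. They were then treated, with 0.1% DMSO as solvent control and 10^−7 M epoxomicin as reference. Cells were rinsed with PBS, lysed in passive lysis buffer and frozen at −20° C. Luciferase activity was measured with a Promega kit at 20-25° C. Each induction factor versus solvent was expressed relative to epoxomicin, set at 100%.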

The mark [1] stands for this setting: concentration tested 5 · 10^−6 M.
Setting [2] is: concentration tested 5 · 10^−7 M.

`CC(=O)O[C@H]1C[C@@]2(C)[C@@H]3CC[C@H]4[C@H](C)C(=O)C=C[C@@]45C[C@@]35CC[C@]2(C)[C@H]1[C@H](C)[C@@H](OC(C)=O)C(=O)C=C(C)C` [Compound 9, 26-dehydroxy,24,25-dehydro-nor-neoboutomellerone]: the “relative induction factor (IF % luminescence) versus epoxomicin” value runs as follows: under setting [1], 34%; (concentration tested 10^−5 M) 44%; (concentration tested 10^−6 M) 1%.
On to `C=C(C(=O)[C@H](O)[C@@H](C)[C@H]1[C@@H](OC(C)=O)C[C@@]2(C)[C@@H]3CC[C@H]4[C@H](C)C(=O)C[C@H](O)[C@@]45C[C@@]35CC[C@]12C)[C@@H](C)CO` [Compound 15, 1-hydroxy-2-hydro-22-deacetyl-neoboutomellerone], for which the “relative induction factor (IF % luminescence) versus epoxomicin” value was found to be 11% under setting [1], 74% (concentration tested 10^−5 M) and 2% (concentration tested 10^−6 M).
For the compound `C=C(C(=O)[C@H](OC(C)=O)[C@@H](C)[C@H]1[C@@H](OC(C)=O)C[C@@]2(C)C3CCC4[C@H](C)C(=O)C=C[C@@]45C[C@@]35CC[C@]12C)[C@@H](C)COP(=O)(O)O` (stereo partly shown) [Compound 89, 26-phosphate-neoboutomellerone], the “relative induction factor (IF % luminescence) versus epoxomicin” value by setting is: under setting [1], 3%; (concentration tested 10^−5 M) 40%; (concentration tested 10^−6 M) 1%.
Taken in the same sequence, the figures for `C=C(C(=O)[C@H](OC(C)=O)[C@@H](C)[C@H]1[C@@H](OC(C)=O)C[C@@]2(C)C3CCC4[C@H](C)C(=O)C=C[C@@]45C[C@@]35CC[C@]12C)[C@@H](C)COC(=O)CCl` (stereo partly shown) [Compound 49, 26-chloro-acetate-neoboutomellerone Derivative] were 44%, 15% and 19%.
With `C=C(C(=O)[C@H](O)[C@@H](C)[C@H]1[C@@H](OC(C)=O)C[C@@]2(C)[C@@H]3CC[C@H]4[C@H](C)C(=O)C=C[C@@]45C[C@@]35CC[C@]12C)C(C)C` [Compound 7, 22-deacetyl,26-dehydroxy-neoboutomellerone], the “relative induction factor (IF % luminescence) versus epoxomicin” value under setting [1] worked out at 65%, the “relative induction factor (IF % luminescence) versus epoxomicin” value (concentration tested 10^−5 M) was 21% and the “relative induction factor (IF % luminescence) versus epoxomicin” value (concentration tested 10^−6 M) worked out at 2%.
Consider `C=C(C(=O)[C@H](O)[C@@H](C)[C@H]1[C@@H](OC(C)=O)C[C@@]2(C)[C@@H]3C[C@@H](O)[C@H]4[C@H](C)C(=O)C=C[C@@]45C[C@@]35CC[C@]12C)[C@@H](C)CO` [Compound 16, 6-hydroxy-22-deacetyl-neoboutomellerone], for which the “relative induction factor (IF % luminescence) versus epoxomicin” value is, setting by setting: under setting [1], 35%; (concentration tested 10^−6 M) 1%.
As for `CC(=O)O[C@H]1C[C@@]2(C)C3CCC4[C@H](C)C(=O)C=C[C@@]45C[C@@]35CC[C@]2(C)[C@H]1[C@H](C)[C@@H](OC(C)=O)C1=C(CN=[N+]=[N-])C(C)CO1` (stereo partly shown) [Compound 47, Azido-methyl-dihydro-furan-neoboutomellerone Derivative], the “relative induction factor (IF % luminescence) versus epoxomicin” value is recorded as 78% under setting [1], 36% (concentration tested 10^−5 M) and 7% (concentration tested 10^−6 M).
For the compound `C=C(C(=O)[C@H](OC(C)=O)[C@@H](C)[C@H]1[C@@H](OC(C)=O)C[C@@]2(C)[C@@H]3CC[C@H]4[C@H](C)C(=O)C=C[C@@]45C[C@@]35CC[C@]12C)[C@@H](C)COC(=O)N1CCN(C)CC1` [Compound 22, 26-N—(N-methylpiperazine)carbamate-neoboutomellerone hydrochloride], the “relative induction factor (IF % luminescence) versus epoxomicin” value came to 4% under setting [1], 8% under setting [2], 1% (concentration tested 10^−5 M) and 68% (concentration tested 10^−6 M).
Taken in the same sequence, the figures for `C=C(C(=O)[C@H](OC(C)=O)[C@@H](C)[C@H]1[C@@H](OC(C)=O)C[C@@]2(C)[C@@H]3CC[C@H]4[C@H](C)C(=O)C=C[C@@]45C[C@@]35CC[C@]12C)[C@@H](C)CO` [Compound 2, Neoboutomellerone] were 37%, 2%, 4% and 48%.
On to `C=C(C(=O)[C@H](OC(=O)CCC(=O)O)[C@@H](C)[C@H]1[C@@H](OC(C)=O)C[C@@]2(C)C3CCC4[C@H](C)C(=O)C=C[C@@]45C[C@@]35CC[C@]12C)[C@@H](C)COC(C)=O` (stereo partly shown) [Compound 74, 22-deacetyl-22-succinate-26-acetyl-neoboutomellerone N-methylglucamine salt], for which the “relative induction factor (IF % luminescence) versus epoxomicin” value reads like this: under setting [1], 14%; (concentration tested 10^−5 M) 2%; (concentration tested 10^−6 M) 60%.
